Measured values from patent publication US8741359B2, “Method for testing a substance which is potentially active in the field of lipolysis and its mainly cosmetic use” (BASF Beauty Care Solutions France S.A.S., priority 2001, dated 2014).

Tests used:
lipoprotein lipase [1] = biological target: T1, lipoprotein lipase (Bos taurus, UniProt P11151); test: Inhibition of lipoprotein lipase, acellular in vitro model, NEFA determination with NEFA-C kit (colorimetry 550 nm); format: biochemical, bovine; details: for Inhibition (%) Pure product diluted to a 1/100th / Inhibition (%) Pure product diluted to a 1/10,000th / Inhibition (%) Pure product: reference inhibitors; for Inhibition (%) Pure product: pure product at initial concentration (protamine sulphate 0.4%, protamine 2.4%, sodium pyrophosphate 6%)
T1 construct: The LPL used in the study model retained does in fact originate from bovine milk; from tissue; host or cells: bovine milk
T1 sequence (P11151 29-478): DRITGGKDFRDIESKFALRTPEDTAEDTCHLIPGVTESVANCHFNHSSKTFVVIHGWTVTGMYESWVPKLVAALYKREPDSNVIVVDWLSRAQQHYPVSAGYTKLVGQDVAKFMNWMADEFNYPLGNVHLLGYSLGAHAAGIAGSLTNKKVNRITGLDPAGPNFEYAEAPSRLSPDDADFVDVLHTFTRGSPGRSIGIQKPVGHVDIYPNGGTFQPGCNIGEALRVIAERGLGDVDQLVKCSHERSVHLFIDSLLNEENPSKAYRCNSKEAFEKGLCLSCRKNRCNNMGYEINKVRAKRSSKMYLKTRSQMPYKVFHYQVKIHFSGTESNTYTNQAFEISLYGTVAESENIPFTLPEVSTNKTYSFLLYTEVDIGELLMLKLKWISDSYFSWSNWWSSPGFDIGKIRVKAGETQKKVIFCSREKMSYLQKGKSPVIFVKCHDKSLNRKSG

lipoprotein lipase [2] = biological target: T1, lipoprotein lipase; test: Inhibition of lipoprotein lipase, released oleic acid determined by gas phase chromatography (GPC); format: biochemical, bovine; details: for Inhibition Pure product diluted to a 1/100th: diluted 1/100th; for Inhibition Pure product diluted to a 1/10,000th: diluted 1/10,000th; for Inhibition Pure product: pure product at initial concentration (sodium pyrophosphate 6%, protamine sulphate 0.4%)
Description: LPL is an enzyme which has a significant affinity for its reaction product. The fatty acids released will in fact aggregate around the enzyme which will as it were be sequestered by the fatty acids and will therefore be no longer accessible to the substrate. […] II—Inhibition of the Lipoprotein Lipase:
The enzyme is incubated for a determined period of time in the presence of its inhibitor while the triolein is incubated in the presence of apoCII so as to mimic the situation encountered in vivo.
The triolein/ApoCII mixture is then incubated in the presence of the medium constituted by the enzyme±inhibitor.
For this, an oleic acid determination technique which enables the oleic acid at the end of the enzymatic reaction to be quantified, was developed.
The oleic acid is extracted from the reaction medium of the enzymatic determination with ethanol, and then injected onto a commercial column from DBJW scientific: reference DB FFAP, 15 m in length, 0.32 mm internal diameter, 0.25 μm thickness in splitless mode. The temperatures of the injector and of the detector are 280° C. The programming in temperature starts at 50° C. for 1 minute and then rises by 40° C./minute up to 200° C. and then by 15° C. par minute up to 250° C. for 3 minutes.

Inhibition (%) Pure product diluted to a 1/100th (lipoprotein lipase [1]; diluted 1/100th) | Inhibition (%) Pure product diluted to a 1/10,000th (lipoprotein lipase [1]; diluted 1/10,000th) | Inhibition (%) Pure product (lipoprotein lipase [1]) | Inhibition Pure product diluted to a 1/100th (lipoprotein lipase [2]) | Inhibition Pure product diluted to a 1/10,000th (lipoprotein lipase [2]) | Inhibition Pure product (lipoprotein lipase [2]) | Inhibition Pure product diluted to a 1/100th (lipoprotein lipase [1]; denaturing products, diluted 1/100th) | Inhibition Pure product diluted to a 1/10,000th (lipoprotein lipase [1]; denaturing products, diluted 1/10,000th) | Inhibition Pure product (lipoprotein lipase [1]; denaturing products, pure product) | Molecule
2.6% ± 14.4 | 11.8% ± 14.7 | 10.1% ± 7.9 | 5.0% ± 9.6 | 27.7% ± 2.9 | 17.9% ± 17.5 |  |  |  | Protamine sulphate
 |  |  | 44.8% ± 10.6 | 0% ± 3.8 | 100% ± 1.8 | 11.4% ± 10.39 | 0% ± 9.8 | 98.3% ± 12.4 | O=C(OC[C@H]1O[C@@H](OC(=O)c2cc(O)c(O)c(OC(=O)c3cc(O)c(O)c(O)c3)c2)[C@H](OC(=O)c2cc(O)c(O)c(OC(=O)c3cc(O)c(O)c(O)c3)c2)[C@@H](OC(=O)c2cc(O)c(O)c(OC(=O)c3cc(O)c(O)c(O)c3)c2)[C@@H]1OC(=O)c1cc(O)c(O)c(OC(=O)c2cc(O)c(O)c(O)c2)c1)c1cc(O)c(O)c(OC(=O)c2cc(O)c(O)c(O)c2)c1 [Tannic acid]
9.6% ± 5 | 8.5% ± 8.7 | 11.2% ± 6.6 |  |  |  |  |  |  | Protamine

Molecule | Inhibition (%) Pure product diluted to a 1/100th (lipoprotein lipase [1]; diluted 1/100th) | Inhibition (%) Pure product diluted to a 1/10,000th (lipoprotein lipase [1]; diluted 1/10,000th) | Inhibition (%) Pure product (lipoprotein lipase [1]) | Inhibition Pure product diluted to a 1/100th (lipoprotein lipase [2]) | Inhibition Pure product diluted to a 1/10,000th (lipoprotein lipase [2]) | Inhibition Pure product (lipoprotein lipase [2]) | Inhibition Pure product diluted to a 1/100th (lipoprotein lipase [1]; denaturing products, diluted 1/100th) | Inhibition Pure product diluted to a 1/10,000th (lipoprotein lipase [1]; denaturing products, diluted 1/10,000th) | Inhibition Pure product (lipoprotein lipase [1]; denaturing products, pure product)
O=P([O-])([O-])OP(=O)([O-])[O-].[Na+].[Na+].[Na+].[Na+] [Sodium pyrophosphate] | 13% ± 12.5 | 0.4% ± 8.3 | 15% ± 12.6 | 30.4% ± 4.0 | 47.4% ± 10.4 | 35.1% ± 11.1 |  |  | 
